Patent US20050026223A1, “Method and compositions for increasing bone mass” (The Board of Trustees of the University of Arkansas, priority 1999, published 2005)
Values joined by “and” are separate entries in the source; they are usually repeats but may differ in a detail not shown here. Equal entries are not always repeated.

Assays:
[1] = test system: osteoblastic cells derived from murine calvaria; experiment: Etoposide-induced apoptosis of osteoblastic cells derived from murine calvaria (trypan blue uptake); assay type: cell-based
Protocol: Osteoblastic cells derived from murine calvaria were pretreated with the sterols for 1 hour before the addition of the pro-apoptotic agent, etoposide. Apoptosis was determined after 6 hours by trypan blue uptake (Jilka et al, J. Bone and Min. Res. 13:793:802, 1998). * indicates p<0.05 versus etoposide alone, by analysis of variance (ANOVA) (Student-Newman-Keuls method).
Osteoblastic cells derived from murine calvaria were pretreated for 1 hour with the pure receptor antagonist ICI182,780 (10^−7 M) before the addition of the test agents (10^−8 M). Apoptosis was induced and quantified as described in FIG. 3. * indicates p<0.05 versus etoposide alone, by ANOVA (Student-Newman-Keuls method).
In this experiment, osteoblastic cells were derived from murine calvaria and were pretreated with the sterols for 1 hour before the addition of the pro-apoptotic agent, etoposide.
In these experiments, cells were pretreated with the indicated concentrations of the various compounds for 1 hour, in the absence or presence of the androgen receptor antagonist flutamide, before the addition of the proapoptotic agent etoposide. Apoptosis was determined after 6 hours by trypan blue uptake as described in FIG. 3.

MLO-Y4 osteocytic cells = experiment: Etoposide-induced apoptosis of MLO-Y4 osteocytic cells (trypan blue uptake); assay type: cell-based, murine
Protocol: Cells were pretreated with the indicated concentrations of the compounds for 1 hour before the addition of the pro-apoptotic agent etoposide. Apoptosis was determined after 6 hour by trypan blue uptake as described in FIG. 3. * indicates p<0.05 versus etoposide alone, by ANOVA (Student-Newman-Keuls method).
MLO-Y4 cells were pretreated for 1 hour with the pure receptor antagonist ICI182,780 (10^−7 M) before the addition of the test agents (10^−8 M). Apoptosis was induced and quantified as described in FIG. 3. * indicates p<0.05 versus etoposide alone, by ANOVA (Student-Newman-Keuls method).
In this experiment, MLO-Y4 cells were pretreated with the indicated concentrations of the various compounds for 1 h before the addition of the pro-apoptotic agent, etoposide. Apoptosis was determined after 6 h by trypan blue uptake as described in FIG. 3.

[2] = test system: HeLa cells transfected with the estrogen receptor α (mERα); experiment: Etoposide-induced apoptosis of HeLa cells stably transfected with mERα; assay type: cell-based, human; conditions: compound 10^−8 M 1 h, etoposide 5×10^−5 M 6 hour
From the text: (§1) CMV promoter alone and CMV promoter-driven cDNA for mERα or mErβ were stably transfected into HeLa cells. […] Cells were trypsinized, pelleted and trypan blue positive cells enumerated.
(§2) In this experiment, instead of calvaria cells, human HeLa cells which contain undetectable, if any, estrogen receptor were used. HeLa cells were stably transfected with either a CMV promoter-driven cDNA for the murine estrogen receptor-alpha (mERα) or a CMV promoter-driven cDNA for the murine estrogen receptor-beta (mERβ). […] Cells were trypsinized, pelleted and trypan blue positive cells were enumerated.

[3] = test system: HeLa cells transfected with estrogen receptor β (mERβ); experiment: Etoposide-induced apoptosis of HeLa cells stably transfected with mERβ; assay type: cell-based, human; conditions: compound 10^−8 M 1 h, etoposide 5×10^−5 M 6 hour
From the text: as §1, §2

[4] = BMD by dual-energy x-ray absorptiometry in intact or ovariectomized mice, 28 days; assay type: in vivo; parameters: global 1 (BMD) / hindquart 1 (BMD) / spine 1 (BMD) / global 2 (BMD) / hindquart 2 (BMD) / spine 2 (BMD) / global 1 (BMD), mean / hindquart 1 (BMD), mean / spine 1 (BMD), mean / global 2 (BMD), mean / hindquart 2 (BMD), mean / spine 2 (BMD), mean: unit not given here; conditions: for Global BMD: 2000 ng/g body weight for 28 days, mean; for global 2 (BMD), mean / hindquart 2 (BMD), mean / spine 2 (BMD), mean / global 2 (BMD) / hindquart 2 (BMD) / spine 2 (BMD): 2000 ng/g for 28 days, end of experiment; for global 2 (BMD), mean / hindquart 2 (BMD), mean / spine 2 (BMD), mean / global 1 (BMD), mean / hindquart 1 (BMD), mean / spine 1 (BMD), mean: group mean; for global 2 (BMD) / hindquart 2 (BMD) / spine 2 (BMD) / global 1 (BMD) / hindquart 1 (BMD) / spine 1 (BMD): individual animals; for global 1 (BMD), mean / hindquart 1 (BMD), mean / spine 1 (BMD), mean / global 1 (BMD) / hindquart 1 (BMD) / spine 1 (BMD): 2000 ng/g group, day 0 initial measurement
Protocol: In a representative experiment of this sort, six 4-5 month old female mice per group are screened twice for BMD in a four week period immediately prior to the initiation of the experiment to establish that peak adult bone mass has been attained. A subset of mice are then ovariectomized. Intact and ovariectomized mice are treated with vehicle, or 20, 200 or 2000 ng/g body weight estratriene-3-ol or another test compound.
Stock solutions of the test agents (10,000 μg/ml) are maintained in approximately 2.0 ml of 95% ethanol. These stocks are diluted in 95% ethanol to make 1000 μg/ml and 100 μg/ml concentrations. The concentration of the stocks is checked spectrophotometrically. For each animal injection, the test agent is diluted in sesame oil and sonicated. Test agents are administered for 28 days by subcutaneous injections on alternative days. The mice are weighed weekly and serum samples are collected at appropriate times for analysis of bone biochemical markers, such as osteocalcin or collagen cross-links. Tetracycline labeling is performed by administration of the antibiotic (30 mg/kg) at 2 and 8 days prior to the end of each experiment.
During the 28 day experiment, BMD is determined in live animals at day 0, 14 and 28. Following animal sacrifice at the end of the experiment, the vertebral bones L1-L4 are collected for fixation and embedded undecalcified in methylmethacrylate plastic for the determination of the prevalence of osteoblast and osteocyte apoptosis and other static and dynamic histomorphometric measurements. L5 vertebrae are isolated for determining anti-fracture efficacy of the compounds by assaying compression, 3 point bending and other appropriate biomechanical tests. Results confirming the expected efficacy of these compounds show decreased prevalence of osteoblast and/or osteocyte apoptosis, and/or positive BMD changes, and/or increased cancellous bone area, and/or increased rate of bone formation, and/or increased biomechanical strength.
As an example, the results of an experiment whereby 2000 ng/g body weight of estratriene-3-ol was administered for 28 days to estrogen-replete (intact) or estrogen-deficient (ovariectomized) mice are shown in Table 2.
Each row represents values for individual animals. The first three sets of numbers represent the initial BMD measurements (by dual-energy x-ray absorptiometry with Hologic QDR2000 plus, using customized software) at day 0 and the last three BMD measurements at the end of the experiment. Global=BMD of the entire skeleton minus the head and tail; hindquarters=the mean BMD of both hindlimbs; spine=the BMD of cervical, thoracic and lumbar spine.

[5] = Ovx mice, t-test ovx vs 2000 ng/g 0.0001

For C[C@@]12CCC[C@H]1[C@@H]1CCc3cc(O)ccc3[C@H]1CC2 [estratriene-3-ol], the “Inhibition of etoposide-induced osteoblast apoptosis” value ([1]; 1 hour pretreatment before etoposide) was “inhibition of etoposide-induced osteoblastic cell apoptosis was demonstrated”, the “Anti-apoptotic effect on osteoblastic cells after ICI182,780” value ([1]; compound 10^−8 M, 1 h pretreatment with ICI182,780 10^−7 M) was “abrogated” and the “Inhibition of etoposide-induced apoptosis of osteocytic cell line” value (MLO-Y4 osteocytic cells; 1 h pretreatment before etoposide, trypan blue after 6 h) was “dose-dependently inhibited”. The “Antiapoptotic effect on osteocytes after ICI182,780” value (MLO-Y4 osteocytic cells; 1 h pretreatment with ICI182,780 10^−7 M) was “abrogated”, the “Effect on etoposide-induced apoptosis” value [2] was “potently inhibited” and the “Effect on etoposide-induced apoptosis” value [3] was “potently inhibited”. The “Global BMD” value ([4]; Ovx mice, p < 0.00001) was 0.0555 ± 0.0011 g/cm2, the “global 2 (BMD), mean” value ([4]; Ovx mice, t-test ovx vs 2000 ng/g 0.0000) was 0.0555 and the “hindquart 2 (BMD), mean” value [4, 5] was 0.0618. The “spine 2 (BMD), mean” value [4, 5] was 0.0599, the “global 2 (BMD)” value ([4]; Ovx mice) was 0.0565 and 0.0557 and 0.0548 and 0.0545 and 0.0564 and 0.0568 and 0.0550 and 0.0539 and the “hindquart 2 (BMD)” value ([4]; Ovx mice) was 0.0602 and 0.0632 and 0.0599 (2×) and 0.0624 and 0.0598 and 0.0647 and 0.0630. For the same compound, the “spine 2 (BMD)” value ([4]; Ovx mice) was 0.0608 and 0.0585 and 0.0584 and 0.0598 and 0.0610 and 0.0625 and 0.0578 and 0.0605, the “global 1 (BMD), mean” value ([4]; Ovx mice) was 0.0534 and the “hindquart 1 (BMD), mean” value ([4]; Ovx mice) was 0.0573. The “spine 1 (BMD), mean” value ([4]; Ovx mice) was 0.0579, the “global 1 (BMD)” value ([4]; Ovx mice) was 0.0505 and 0.0542 and 0.0496 and 0.0540 and 0.0526 and 0.0569 and 0.0565 and 0.0528 and the “hindquart 1 (BMD)” value ([4]; Ovx mice) was 0.0527 and 0.0588 and 0.0504 and 0.0596 and 0.0547 and 0.0604 and 0.0591 and 0.0582. The “spine 1 (BMD)” value ([4]; Ovx mice) was 0.0547 and 0.0581 and 0.0542 and 0.0586 and 0.0580 and 0.0628 and 0.0603 and 0.0568, the “Global BMD” value ([4]; intact mice, p < 0.002) was 0.0554 ± 0.0015 g/cm2 and the “global 2 (BMD), mean” value ([4]; intact mice, t-test vehicle vs 2000 ng/g 0.0036) was 0.0554. The “spine 2 (BMD), mean” value ([4]; intact mice, t-test vehicle vs 2000 ng/g 0.0037) was 0.0609, the “hindquart 2 (BMD), mean” value ([4]; intact mice, t-test vehicle vs 2000 ng/g 0.0077) was 0.0605 and the “global 2 (BMD)” value ([4]; intact mice) was 0.0550 and 0.0543 and 0.0541 and 0.0568 (2×) and 0.0537 and 0.0574. For the same compound, the “hindquart 2 (BMD)” value ([4]; intact mice) was 0.0585 and 0.0603 and 0.0619 and 0.0629 and 0.0640 and 0.0554 and 0.0605, the “spine 2 (BMD)” value ([4]; intact mice) was 0.0602 and 0.0604 and 0.0601 and 0.0613 and 0.0620 and 0.0588 and 0.0632 and the “global 1 (BMD), mean” value ([4]; intact mice) was 0.0527. For the same compound, the “hindquart 1 (BMD), mean” value ([4]; intact mice) was 0.0562, the “spine 1 (BMD), mean” value ([4]; intact mice) was 0.0571 and the “global 1 (BMD)” value ([4]; intact mice) was 0.0486 and 0.0511 and 0.0543 and 0.0537 and 0.0533 and 0.0521 and 0.0560. For the same compound, the “hindquart 1 (BMD)” value ([4]; intact mice) was 0.0509 and 0.0565 and 0.0605 and 0.0577 and 0.0546 and 0.0544 and 0.0587 and the “spine 1 (BMD)” value ([4]; intact mice) was 0.0511 and 0.0560 and 0.0593 and 0.0584 and 0.0571 and 0.0555 and 0.0623.
